{"source": "patent US20070010756A1", "about": "(priority 2005, published 2007)", "origin": "cited, not measured here", "tested_on": "patients", "conditions": "in vivo"}
{"smiles": "CC(C)c1cccc(C(C)C)c1O", "note": "[propofol]", "values": [{"measurement": "BIS value at which 50 percent of the patients had lost consciousness (95 percent confidence interval)", "value": "61 (59-62)"}, {"measurement": "Response Entropy (RE) value at which 50 percent of the patients had lost consciousness (95 percent confidence interval)", "value": "70 (68-72)"}, {"measurement": "State Entropy (SE) value at which 50 percent of the patients had lost consciousness (95 percent confidence interval)", "value": "64 (62-66)"}]}
